Source: patent US7642066B2, “High throughput pharmaceutical screening using drosophila” (Washington University, priority 2004, dated 2010)
Entries after “also recorded” stand apart in the source; their conditions may differ. Each block holds one compound with its values, some of them ahead of it.

What was measured:
wild-type Drosophila [1] = tested on: wild-type Drosophila; design: species or system Drosophila melanogaster; details: in vivo
Experimental: (§1) Into each well is pipetted 50-400 μl of either standard (control) or high glucose (experimental) Drosophila growth medium. A range of 50-400 μl is a balance between (1) providing sufficient food so as not to place undue feeding stress on the developing flies and (2) providing sufficient air space for the third larval instars to find sufficient wall space to pupate. Any one of several standard Drosophila growth medium recipes as known in the art of breeding Drosophila for research can be used. A known recipe for a standard growth medium includes, for example, water: 1 liter, cornmeal: 61 grams, yeast: 32 grams, agar: 9.3 grams, glucose: 129 grams (or molasses: 67 grams), methyl p-hydrobenzoate: 2.7 grams, and propionic acid: 0.05 liters. A high glucose growth medium is, for example, such a standard Drosophila growth medium supplemented with an additional 1 mole glucose. For example, to prepare a high glucose growth medium, an additional 180 grams of glucose is added to the recipe for standard growth medium as just described. Another embodiment, for example, of a standard growth medium is that prepared as follows: 1 gram agar, 8 grams brewers yeast, 2 grams yeast extract, 2 grams peptone, 3 grams sucrose, 6 grams glucose, 0.05 grams MgSO4×6H20, 0.05 grams CaCl2×2H20, 600 microliters propionic acid, 1 milliliter 10% p-Hydroxy-benzoic acid methyl ester in 95% ethanol, brought to 100 milliliters with water. A high glucose version of this medium is made, for example, by combining 75 milliliters of this medium with 25 milliliters of a 4 molar glucose solution in water.
Alternatively, the experimental growth medium is any growth medium containing an excess amount of a sugar or sugars selected from hexose sugars such as fructose, sorbitol, galactose and glucosamine, and from complex sugars such as sucrose, lactose or maltose.
The addition of 1 molar (1 M) glucose to the Drosophila growth media delayed pupariation, which reached significant levels at day 10 and high levels at day 11.
The developmental arrest can be screened as described in the Examples, infra. Glucose, for example, induces readily observable delays in pupariation as determined by the timing of significant eclosion, and peak eclosion. For example, control Drosophila embryos show significant eclosion beginning at day 8, while Drosophila embryos exposed to high glucose growth medium show significant eclosion beginning at day 11 (1 molar glucose). Similarly, peak eclosion is delayed, for example, from day 10 in controls, to day 12 (1 molar glucose). Thus, candidate compounds are screened by observing changes to the delay in significant eclosion and peak eclosion, as compared to the developmental delay induced by high glucose.
Accordingly, the ability of the hexose sugars fructose, sorbitol, galactose and glucosamine was tested by adding amounts of each sugar to the standard Drosophila growth medium. Fructose and sorbitol induced a 48-hour developmental delay at concentrations similar to those at which glucose induced developmental delay (data not shown).

wild-type Drosophila [2] = assay: Drosophila high throughput screen: effect of compound on glucose-mediated delay in pupariation; assay type: in vivo, Drosophila melanogaster; details: for significant levels of pupariation / high levels of pupariation: 1 M glucose, FIG. 2; for effect on glucose-mediated developmental delay / delay in pupariation: high glucose (1 M glucose in growth media)
Experimental: Accordingly, methods and related articles of composition for high throughput screening assays involve the preparation of microtiter plates each with multiple wells, wherein each well initially contains one or more wild type Drosophila embryos and an amount of a high glucose Drosophila growth medium. The embryos develop while feeding on the high glucose growth medium. The precise age of the embryos at the time they are plated matters less than the fact that they are all about the same age, to permit accurate evaluation of the possible effects of the candidate compound on larval development.
To prepare the microtiter plates, for example, 96-well microtiter plates are used, such as those commonly commercially available and typically used for various laboratory assay techniques, including other high throughput drug assay techniques. A suitable example is a Falcon #3912 flexible 96-well plate. However, other multiple-well microtiter plates can be used.
as §1
A candidate compound, or cocktail of more than one compound, that has been selected for screening is dissolved in EtOH or prepared in DMSO/Aqueous solution. In an exemplary embodiment, EtOH is used. Although DMSO can be used, it can be toxic if it reaches final concentrations of more than 0.3% of the growth medium. The compound in solution is added and allowed to diffuse through the growth medium for an initial period of about 16-24 hours. Wild type Drosophila embryos are collected en masse and, after the initial period of diffusion of the candidate compound through the growth medium, sorted several to a well. In an exemplary embodiment, five to twenty embryos are sorted to each well. However, the number of embryos in each well can easily vary, provided that no more embryos than will flourish in the well are used. The number of embryos per well will also be influenced by the need to obtain a sufficient number of data points to make the test meaningful.
Once the Drosophila embryos are placed into each well on the growth medium, they hatch out and begin feeding after a second period of about 24 hours, bringing the final amount of diffusion time for the subject compound to about 40-48 hours. A period of about 24-48 hours is sufficient for full diffusion of most compounds. […] Finally, each well is sealed with a sealing film such as “Aeraseal Sealing Film” (available from Sigma-Aldrich, St. Louis, Mo.; Sigma #A-9224). […]

[3] = 0.375 mg/ml of food, 1 molar glucose, FIG. 3
[4] = 0.75 mg/ml of food, 1 molar glucose, FIG. 3

Structure (SMILES): O=C[C@H](O)[C@@H](O)[C@@H](O)[C@H](O)CO [galactose]
concentration at which toxicity is demonstrated (wild-type Drosophila [1]; Drosophila melanogaster): 0.3 M

Structure (SMILES): N[C@H]1C(O)O[C@H](CO)[C@@H](O)[C@@H]1O (stereo partly shown) [glucosamine]
concentration inducing a developmental delay (as low as) (wild-type Drosophila [1]; Drosophila melanogaster): 3000 µM
developmental delay with progressively higher levels (wild-type Drosophila [1]): progressively longer developmental delays
larval emergence (wild-type Drosophila [1]): most larvae failed to emerge

Structure (SMILES): COc1ccc(Cl)cc1C(=O)NCCc1ccc(S(=O)(=O)NC(=O)NC2CCCCC2)cc1 [glyburide]
significant levels of pupariation (wild-type Drosophila [2]; 0.25 mg per ml of growth media, no-drug 1 M glucose control approximately day 12): 8 days
high levels of pupariation (wild-type Drosophila [2]; 0.25 mg per ml of growth media, no-drug 1 M glucose control day 13-14): ≤ 10 days
high levels of pupariation (wild-type Drosophila [2]; 1 mg per ml of growth media): 11 days
significant levels of pupariation (wild-type Drosophila [2]; 1 mg per ml of growth media): 11 days
effect on glucose-mediated developmental delay / delay in pupariation (wild-type Drosophila [2]): demonstrated an ability to ameliorate glucose-mediated developmental delay; also recorded: reduced glucose-mediated delay in pupariation

Structure (SMILES): CC(C)[C@H]1CC[C@H](C(=O)N[C@H](Cc2ccccc2)C(=O)O)CC1 [nateglinide]
effect on rate of development (wild-type Drosophila [2]; [3]): partially restored the rate of development
pupariation high rates beginning (wild-type Drosophila [2]; [3]): 9 days
effect on rate of development (wild-type Drosophila [2]; [4]): intermediate result
pupariation high levels beginning (wild-type Drosophila [2]; [4]): 9 days
effect on glucose-mediated developmental delay / delay in pupariation (wild-type Drosophila [2]): demonstrated an ability to ameliorate glucose-mediated developmental delay

Continued, values first:

developmental delay induced (wild-type Drosophila [1]; Drosophila melanogaster): 48 h
Structure (SMILES): O=C(CO)[C@@H](O)[C@H](O)[C@H](O)CO [fructose]

developmental delay induced (wild-type Drosophila [1]; Drosophila melanogaster): 48 h
Structure (SMILES): OC[C@@H](O)[C@@H](O)[C@H](O)[C@@H](O)CO [sorbitol]
